Source: patent US4742045A, “Glycopeptide antibiotics” (SmithKline Beckman Corporation, priority 1986, dated 1988)
In brackets after ≈: the same amount, converted by molar mass.

Assays:
Assay in all cases: standard microtiter assay, minimum inhibitory concentration
Type in all cases: cell-based
Staphylococcus aureus = conditions: for MIC: Table 5 organism 1 S. aureus
Text: (§1) Representative results of standard microtiter assays are reported in Tables 1, 2 and 3 which follow, as the minimum inhibitory concentration of antibiotic (μg/ml).
(§2) In Table 1, test organisms 1-13 were different strains of Staphylococcus aureus, and 14-16 were different strains of Staphylococcus epidermidis. In Table 2, test organisms 1-5 were different strains of S. aureus; 6, 8, 12 and 14 were different strains of S. epidermidis; 7 was a Staphylococcus haemolyticus; 9 and 10 were different strains of Streptococcus faecalis; 11 was a Streptococcus pyogenes; and 13 was a Staphylococcus saprophyticus. In Table 3, test organisms 1-3 were different strains of S. aureus; 4 and 6 were different strains of S. epidermidis; 5 was a S. haemolyticus and 7 and 8 were different strains of Streptococcus faecalis. Except where individual components are indicated, the CWI-785 antibiotic employed was the CWI-785 complex; in some cases, HCl salts of the CWI-785 antibiotic were employed.
(§3) The number of strains tested is shown in parentheses below each organism. The average MIC is reported in μg/ml.
(§4) In Table 5 are shown data from standard microtiter assays carried out in a presence of no serum, 50% human serum (hum.) and 50% mouse serum (mse.). The test organisms were 1: S. aureus; 2,4 and 5: different strains of S. epidermidis; 3: S. haemolyticus; 6: S. saprophyticus; 7 and 8: different strains of S. faecalis.

Streptococcus faecalis = tested on: Streptococcus faecalis
Text: as §1, §2, §3, §4

[1] = tested on: Staphylococcus epidermidis
Text: as §1, §2, §4

[2] = tested on: Staphylococcus haemolyticus; conditions: for MIC: Table 5 organism 3 S. haemolyticus
Text: as §1, §2, §4

[3] = tested on: Staphylococcus saprophyticus; conditions: for MIC: Table 5 organism 6 S. saprophyticus
Text: as §1, §2, §4

Streptococcus pyogenes = conditions: Table 2 test organism 11, Streptococcus pyogenes
Text: as §1, §2

## CNC(C(=O)NC1C(=O)NC(CC[S+](C)[O-])C(=O)NC2C(=O)NC3C(=O)NC(C(=O)NC(C(=O)O)c4cc(O)cc(O)c4-c4cc3ccc4O)C(OC3CC(N)C(O)C(C)O3)c3ccc(c(Cl)c3)Oc3cc2cc(c3O)Oc2ccc(cc2)C1O)c1ccc(O)cc1 (centres unmarked) [HPB3]
Staphylococcus aureus; Table 2 test organism 1, S. aureus strain
  minimum inhibitory concentration: 0.8 µg/mL (≈ 0.612 µM)
Staphylococcus aureus; Table 2 test organism 2, S. aureus strain
  minimum inhibitory concentration: 0.8 µg/mL (≈ 0.612 µM)
Staphylococcus aureus; Table 2 test organism 3, S. aureus strain
  minimum inhibitory concentration: 0.8 µg/mL (≈ 0.612 µM)
Staphylococcus aureus; Table 2 test organism 4, S. aureus strain
  minimum inhibitory concentration: 0.4 µg/mL (≈ 0.306 µM)
Staphylococcus aureus; Table 2 test organism 5, S. aureus strain
  minimum inhibitory concentration: 0.8 µg/mL (≈ 0.612 µM)
Staphylococcus aureus; 50% Hum. Serum
  MIC: 0.8 µg/mL (≈ 0.612 µM)
Staphylococcus aureus; 50% Mse. Serum
  MIC: 0.8 µg/mL (≈ 0.612 µM)
Staphylococcus aureus; No Serum
  MIC: 0.8 µg/mL (≈ 0.612 µM)
Streptococcus faecalis; Table 2 test organism 9, Streptococcus faecalis strain
  minimum inhibitory concentration: 0.8 µg/mL (≈ 0.612 µM)
Streptococcus faecalis; Table 2 test organism 10, Streptococcus faecalis strain
  minimum inhibitory concentration: 0.8 µg/mL (≈ 0.612 µM)
Streptococcus faecalis; Table 5 organism 7 S. faecalis, 50% Hum. Serum
  MIC: 3.1 µg/mL (≈ 2.37 µM)
Streptococcus faecalis; Table 5 organism 7 S. faecalis, 50% Mse. Serum
  MIC: 3.1 µg/mL (≈ 2.37 µM)
Streptococcus faecalis; Table 5 organism 7 S. faecalis, No Serum
  MIC: 0.8 µg/mL (≈ 0.612 µM)
Streptococcus faecalis; Table 5 organism 8 S. faecalis, 50% Hum. Serum
  MIC: 6.3 µg/mL (≈ 4.82 µM)
Streptococcus faecalis; Table 5 organism 8 S. faecalis, 50% Mse. Serum
  MIC: 3.1 µg/mL (≈ 2.37 µM)
Streptococcus faecalis; Table 5 organism 8 S. faecalis, No Serum
  MIC: 0.8 µg/mL (≈ 0.612 µM)
[1]; Table 2 test organism 6, S. epidermidis strain
  minimum inhibitory concentration: 0.8 µg/mL (≈ 0.612 µM)
[1]; Table 2 test organism 8, S. epidermidis strain
  minimum inhibitory concentration: 0.8 µg/mL (≈ 0.612 µM)
[1]; Table 2 test organism 12, S. epidermidis strain
  minimum inhibitory concentration: 0.8 µg/mL (≈ 0.612 µM)
[1]; Table 2 test organism 14, S. epidermidis strain
  minimum inhibitory concentration: 0.8 µg/mL (≈ 0.612 µM)
[1]; Table 5 organism 2 S. epidermidis, 50% Hum. Serum
  MIC: 6.1 µg/mL (≈ 4.66 µM)
[1]; Table 5 organism 2 S. epidermidis, 50% Mse. Serum
  MIC: 1.6 µg/mL (≈ 1.22 µM)
[1]; Table 5 organism 2 S. epidermidis, No Serum
  MIC: 0.8 µg/mL (≈ 0.612 µM)
[1]; Table 5 organism 4 S. epidermidis, 50% Hum. Serum
  MIC: 1.6 µg/mL (≈ 1.22 µM)
[1]; Table 5 organism 4 S. epidermidis, 50% Mse. Serum
  MIC: 1.6 µg/mL (≈ 1.22 µM)
[1]; Table 5 organism 4 S. epidermidis, No Serum
  MIC: 0.8 µg/mL (≈ 0.612 µM)
[1]; Table 5 organism 5 S. epidermidis, 50% Hum. Serum
  MIC: 0.8 µg/mL (≈ 0.612 µM)
[1]; Table 5 organism 5 S. epidermidis, 50% Mse. Serum
  MIC: 0.8 µg/mL (≈ 0.612 µM)
[1]; Table 5 organism 5 S. epidermidis, No Serum
  MIC: 0.8 µg/mL (≈ 0.612 µM)
[2]; Table 2 test organism 7, Staphylococcus haemolyticus
  minimum inhibitory concentration: 1.6 µg/mL (≈ 1.22 µM)
[2]; 50% Hum. Serum
  MIC: 6.3 µg/mL (≈ 4.82 µM)
[2]; 50% Mse. Serum
  MIC: 3.1 µg/mL (≈ 2.37 µM)
[2]; No Serum
  MIC: 1.6 µg/mL (≈ 1.22 µM)
[3]; Table 2 test organism 13, Staphylococcus saprophyticus
  minimum inhibitory concentration: 0.8 µg/mL (≈ 0.612 µM)
[3]; 50% Hum. Serum
  MIC: 3.1 µg/mL (≈ 2.37 µM)
[3]; 50% Mse. Serum
  MIC: 3.1 µg/mL (≈ 2.37 µM)
[3]; No Serum
  MIC: 0.8 µg/mL (≈ 0.612 µM)
Streptococcus pyogenes
  minimum inhibitory concentration: 0.1 µg/mL (≈ 0.0765 µM)
